Experimental data from PMC8001472, “Novel Selective IDO1 Inhibitors with Isoxazolo[5,4-d]pyrimidin-4(5H)-one Scaffold” (Pharmaceuticals, 2021).

Assays:
hTDO = molecular target: T1, hTDO (Homo sapiens, UniProt P48775); experiment: hTDO inhibitory potency evaluation (fluorescence assay); type: biochemical
T1 construct: purchased Vinci-Biochem
Procedure: (§1) Additionally, to determine IDO1 selectivity, all final compounds were assayed for their inhibitory potencies towards hIDO2 and hTDO. For this purpose, two new protocols were developed based on the published fluorescence assay for hIDO1 [25]. Sodium ascorbate, methylene blue, and bovine catalase were used in the same concentrations as for hIDO1. 50 mM phosphate buffers with pH values of 7.5 and 7.0 were used for hIDO2 and hTDO, respectively, as has been already mentioned before. First, the activities of hIDO2 and hTDO were determined at four different concentrations. […] Additionally, the effect of DMSO concentration on enzyme activity was investigated. […] The optimal hIDO2 and hTDO assay concentrations of the substrate L-Trp were determined to be 4 mM and 500 μM, respectively.
The activity of the compounds on hTDO was determined according to the previously reported fluorescence protocol for hIDO1 [25] and reported absorbance protocols for hTDO [30] with several modifications. Recombinant hTDO was purchased from Vinci-Biochem (Vinci-Biochem, Vinci, Italy), bovine catalase was purchased from Sigma-Aldrich (Sigma-Aldrich, St. Louis, MO, USA). Prior to the measurement of activity for compounds, the enzyme activity was determined, and optimal assay enzyme concentration was selected. The amounts of reagents needed to perform the assay were optimized. Briefly, the reagents needed were dissolved in 50 mM potassium phosphate buffer (pH 7.0, 0.01%, v/v Tween 20), the reaction was performed in black 384-well microplates. After the addition of 1 μL of 100 mM sodium ascorbate neutralized with equimolar amount of 1 M NaOH, 1 μL of 100 μM methylene blue, 1 μL of 1 mg/mL bovine catalase, 0.5 μL of DMSO (negative control) or solution of a compound, 5 μL of 300 nM hTDO and 1.5 μL of 3.3 mM L-Trp were added and the microplate was incubated for 60 min at 37 °C. The reaction was quenched with the addition of 10 μL of 400 mM piperidine solution in MilliQ water and the formation of the examined fluorophore began following incubation at 65 °C for 20 min. The production of NFK-derived fluorophore (λEX = 400 nm, λEM = 500 nm) was measured using a microplate reader (Synergy H4; BioTek Instruments, Inc., Winooski, VT, USA) after 60 min post-incubation at room temperature. In the preliminary testing compounds were tested at 100 μM with activities determined as residual activities—RA, which were calculated to% of inhibition, presented in Table 1 and Table 2 (% of inhibition = 100% − RA). All determinations were carried out in duplicates.

hIDO2 = molecular target: T2, hIDO2 (Homo sapiens, UniProt Q6ZQW0); experiment: hIDO2 inhibitory potency evaluation (fluorescence assay); type: biochemical
T2 construct: purchased Vinci-Biochem
T2 sequence (Q6ZQW0 1-407): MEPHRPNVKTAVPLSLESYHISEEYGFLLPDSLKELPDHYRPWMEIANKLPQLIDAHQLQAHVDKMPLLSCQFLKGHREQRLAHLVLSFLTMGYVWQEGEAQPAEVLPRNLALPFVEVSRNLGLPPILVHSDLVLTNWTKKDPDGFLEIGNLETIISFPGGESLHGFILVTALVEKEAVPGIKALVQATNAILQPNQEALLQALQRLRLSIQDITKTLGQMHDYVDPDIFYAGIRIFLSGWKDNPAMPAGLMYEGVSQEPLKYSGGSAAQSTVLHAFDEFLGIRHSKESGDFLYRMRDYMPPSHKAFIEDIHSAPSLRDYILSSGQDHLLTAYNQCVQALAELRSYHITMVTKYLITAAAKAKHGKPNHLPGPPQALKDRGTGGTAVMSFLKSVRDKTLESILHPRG
Procedure: as §1
Activity of the compounds on hIDO2 was determined according to the previously reported fluorescence protocol for hIDO1 [25] and reported absorbance protocols for hIDO2 [30, 36] with several modifications. Recombinant hIDO2 was purchased from Vinci-Biochem (Vinci-Biochem, Srl, Vinci, Italy), bovine catalase was purchased from Sigma-Aldrich (Sigma-Aldrich, St. Louis, MO, USA). Prior to the measurement of activity for compounds, the enzyme activity was determined and optimal assay enzyme concentration was selected. The amounts of reagents needed to perform the assay were optimized. Briefly, the reagents needed were dissolved in 50 mM potassium phosphate buffer (pH 7.5, 0.01%, v/v Tween 20), the reaction was performed in black 384-well microplates. After the addition of 1 μL of 100 mM sodium ascorbate neutralized with an equimolar amount of 1M NaOH, 1 μL of 100 μM methylene blue, 1 μL of 1 mg/mL bovine catalase, 0.5 μL of DMSO (negative control) or solution of a compound in DMSO, 5 μL of […] hIDO2 and 1.5 μL of 26.7 mM L-Trp were added and the microplate was incubated for 60 min at 37 °C. The reaction was quenched with the addition of 10 μL of 400 mM piperidine solution in MilliQ water and the formation of the examined fluorophore began following incubation at 65 °C for 20 min. The production of NFK-derived fluorophore (λEX = 400 nm, λEM = 500 nm) was measured using a microplate reader (Synergy H4; BioTek Instruments, Inc., Winooski, VT, USA) after 60 min post-incubation at room temperature. In the preliminary testing compounds were tested at 100 μM with activities determined as residual activities—RA, which were calculated to% of inhibition, presented in Table 1 and Table 2. (% of inhibition = 100% − RA). All determinations were carried out in duplicates.

T1 sequence (P48775 whole entry): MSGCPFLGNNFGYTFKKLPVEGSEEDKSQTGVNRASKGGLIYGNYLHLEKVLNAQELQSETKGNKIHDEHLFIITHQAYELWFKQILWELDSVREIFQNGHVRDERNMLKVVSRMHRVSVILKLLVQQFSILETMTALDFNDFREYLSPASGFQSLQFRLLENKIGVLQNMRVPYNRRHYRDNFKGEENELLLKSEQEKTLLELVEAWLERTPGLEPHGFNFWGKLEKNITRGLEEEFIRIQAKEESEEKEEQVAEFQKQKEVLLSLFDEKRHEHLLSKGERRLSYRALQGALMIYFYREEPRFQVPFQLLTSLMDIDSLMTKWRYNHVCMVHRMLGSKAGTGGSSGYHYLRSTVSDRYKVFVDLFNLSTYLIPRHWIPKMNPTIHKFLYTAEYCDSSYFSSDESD

- hTDO inhibition (in words) (hTDO): no activity
- melting point: 225 to 227 °C
- hIDO2 inhibition (in words) (hIDO2): no activity
Structure (SMILES): O=C(Cn1cnc2onc(-c3ccc(F)cc3)c2c1=O)Nc1ccc(C(F)(F)F)cc1 [Compound 23]
